Assay results as given in patent US20050222408A1, “Heterocyclic amides with anti-tuberculosis activity” (priority 2003, published 2005).
In brackets after ≈: the same amount, converted by molar mass. Entries after “also recorded” stand apart in the source; their conditions may differ. Where two headings read alike, the source gives them in different places.

Columns and labels:
[1] = Maximum Tolerated Dose (MTD), single oral dose in mice; settings: escalating dose 100, 300 and 500 mg/kg by oral gavage
Protocol: An assay for Maximum Tolerated Dose (MTD) was also utilized. […] Three different concentrations are tested, generally at 100, 300 and 500 mg/kg. The latter dose is about twice to five times the dose used for efficacy testing of the compound in mice. After 7 days of observation the mice are sacrificed and the organs are studied for any adverse effects. In case of abnormalities the organs are fixed in formalin and given for extensive pathology analysis.
Maximum tolerated dosing was performed on these selected compounds. An escalating dose of drug (100, 300 and 500 mg/kg) was given to mice by oral gavage.

M. tuberculosis = type: in vivo, mice; settings: for viable M. tuberculosis, Spleen ± SEM: untreated controls 6.7 ± 0.16; for viable M. tuberculosis, Lungs ± SEM: untreated controls 8.0 ± 0.17
[2] = molecular target: UDP-galactose mutase (Glf) (Mycobacterium tuberculosis, UniProt P9WIQ1); assay: Microtitre plate based screen of Glf (enzymatic inhibition); type: biochemical
Vero cells = assay: Cytotoxicity, alamar blue assay against Vero cells; type: cell-based; settings: for ToxIC50: unit not given; for IC50: Chlorocebus sabaeus, read-out: ToxIC50; for selectivity index (SI): summary b276
M. tuberculosis H37Ra = assay: MIC against M. tuberculosis H37Ra, micro broth dilution in microtiter plates; settings: M. tuberculosis H37Ra; for TB MIC: Table 1; for TB MIC / MIC: 7 days at 37° C., MIC90; for MIC: Mycobacterium tuberculosis, H37RA, 168 h, read-out: TB MIC, Table 1
[3] = Table 1, Vero cells, alamar blue
[4] = Table 1, Vero cells, alamar blue, unit inferred

Chain of UDP-galactose mutase (Glf) (P9WIQ1 whole entry): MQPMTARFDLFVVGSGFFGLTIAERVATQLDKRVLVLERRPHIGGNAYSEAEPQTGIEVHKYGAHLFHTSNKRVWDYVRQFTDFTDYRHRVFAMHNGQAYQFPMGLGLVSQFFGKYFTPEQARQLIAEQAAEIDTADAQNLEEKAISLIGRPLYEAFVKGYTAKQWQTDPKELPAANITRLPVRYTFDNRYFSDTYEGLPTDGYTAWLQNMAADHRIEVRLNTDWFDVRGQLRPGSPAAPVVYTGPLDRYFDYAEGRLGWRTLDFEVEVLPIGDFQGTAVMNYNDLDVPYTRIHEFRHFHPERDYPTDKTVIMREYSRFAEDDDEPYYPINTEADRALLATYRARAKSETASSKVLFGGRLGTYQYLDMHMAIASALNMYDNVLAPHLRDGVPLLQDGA

O=C(Nc1cccc(Cl)c1)c1ccc([N+](=O)[O-])o1 [Compound 10, 5-Nitro-furan-2-carboxylic acid(3-chloro-phenyl)-amide]
Maximum tolerated dosing, effect observed [1]: no effect at the maximum dose | viable M. tuberculosis, Spleen ± SEM (M. tuberculosis; 300 mg/kg): 7.3 ± 0.12 | viable M. tuberculosis, Lungs ± SEM (M. tuberculosis; 300 mg/kg): 8.3 ± 0.21 | Glf inhibition [2]: best inhibitors of Glf | ToxIC50 (Vero cells; [3]): 6.86

O=C(Nc1cccc(F)c1)c1ccc([N+](=O)[O-])o1 [Compound 12, 5-Nitro-furan-2-carboxylic acid(3-fluoro-phenyl)-amide]
TB MIC (M. tuberculosis H37Ra): 0.8 µg/mL | Maximum tolerated dosing, effect observed [1]: no effect at the maximum dose | viable M. tuberculosis, Spleen ± SEM (M. tuberculosis; 300 mg/kg): 7.0 ± 0.11 | viable M. tuberculosis, Lungs ± SEM (M. tuberculosis; 300 mg/kg): 8.4 ± 0.24 | ToxIC50 (Vero cells; [3]): 9.29

COc1cccc(NC(=O)c2ccc([N+](=O)[O-])o2)c1 [Compound 13, 5-Nitro-furan-2-carboxylic acid(3-methoxy-phenyl)-amide]
TB MIC (M. tuberculosis H37Ra): 0.8 µg/mL | Maximum tolerated dosing, effect observed [1]: some pathology at 500 mg/kg | viable M. tuberculosis, Spleen ± SEM (M. tuberculosis; 150 mg/kg): 7.2 ± 0.07 | viable M. tuberculosis, Lungs ± SEM (M. tuberculosis; 150 mg/kg): 8.0 ± 0.3 | Glf inhibition [2]: best inhibitors of Glf | ToxIC50 (Vero cells; [3]): 18.63

COc1ccc(CNC(=O)c2ccc([N+](=O)[O-])o2)c(OC)c1 [Compound 22, 5-Nitro-furan-2-carboxylic acid 2,4-dimetboxy-benzylamide]
TB MIC (M. tuberculosis H37Ra): 0.4 µg/mL | ToxIC50 (Vero cells; [3]): 5.38

COc1ccc(CNC(=O)c2ccc([N+](=O)[O-])o2)cc1OC [Compound 23, 5-Nitro-furan-2-carboxylic acid 3,4-dimethoxy-benzylamide]
anti-tuberculosis MIC activity (M. tuberculosis H37Ra): as active as ethambutol and streptomycin | Maximum tolerated dosing, effect observed [1]: no effect at the maximum dose | viable M. tuberculosis, Spleen ± SEM (M. tuberculosis; 300 mg/kg): 6.0 ± 0.19 | viable M. tuberculosis, Lungs ± SEM (M. tuberculosis; 300 mg/kg): 6.5 ± 0.25 | oral activity against M. tuberculosis in the mouse infection model (M. tuberculosis; oral): significant oral activity | IC50 (Vero cells; Vero): 18.2 µg/mL (≈ 59.3 µM) | selectivity index (SI) (Vero cells): 90.9

COc1ccc(CCNC(=O)c2ccc([N+](=O)[O-])o2)cc1 [Compound 28, 5-Nitro-furan-2-carboxylic acid [2-(4-methoxy-phenyl)-ethyl]-amide]
MIC (M. tuberculosis H37Ra): 0.8 µg/mL (≈ 2.76 µM) | IC50 (Vero cells; Vero): 20.4 µg/mL (≈ 70.5 µM)

CC(NC(=O)c1ccc([N+](=O)[O-])o1)c1ccccc1 (stereo not shown) [Compound 29, 5-Nitro-furan-2-carboxylic acid(1-phenyl-ethyl)-amide]
TB MIC (M. tuberculosis H37Ra): 1.6 µg/mL | ToxIC50 (Vero cells; [3]): 25.63

CC(NC(=O)c1ccc([N+](=O)[O-])o1)c1ccccc1 (stereo not shown) [Compound 30, 5-Nitro-furan-2-carboxylic acid(1-phenyl-ethyl)-amide]
TB MIC (M. tuberculosis H37Ra): 3.1 µg/mL | ToxIC50 (Vero cells; [3]): 23.59

COc1ccc(CCNC(=O)c2ccc([N+](=O)[O-])o2)cc1OC [Compound 31, 5-Nitro-furan-2-carboxylic acid [2-(3,4-dimethoxy-phenyl)-ethyl]-amide]
MIC (M. tuberculosis H37Ra): 0.4 µg/mL (≈ 1.25 µM) | IC50 (Vero cells; Vero): 27.4 µg/mL (≈ 85.7 µM)

COc1cccc(NC(=O)c2ccc(Br)o2)c1 [Compound 33, 5-Bromo-furan-2-carboxylic acid(3-methoxy-phenyl)-amide]
MIC (M. tuberculosis H37Ra): 100 µg/mL (≈ 338 µM) | IC50 (Vero cells; [4]): 61.2 µg/mL (≈ 207 µM)

COc1cccc(NC(=O)c2ccc(Sc3ccccc3)o2)c1 [Compound 36, 5-Phenylsulfanyl-furan-2-carboxylic acid(3-methoxy-phenyl)-amide]
MIC (M. tuberculosis H37Ra): 25 µg/mL (≈ 76.8 µM) | IC50 (Vero cells; [4]): 25.7 µg/mL (≈ 79 µM)

O=C(NCc1ccc(N2CCN(Cc3ccccc3)CC2)cc1)c1ccc([N+](=O)[O-])o1 [Compound 66, 5-Nitro-furan-2-carboxylic acid 4-(4-benzyl-piperazin-1-yl)-benzylamide]
anti-tuberculosis MIC activity (M. tuberculosis H37Ra): extremely potent; also recorded: more active than isoniazid | selectivity index (SI) (Vero cells): 1597

NNC(=O)c1ccncc1 [Isoniazid, reference compound]
viable M. tuberculosis, Spleen ± SEM (M. tuberculosis; 25 mg/kg): 3.2 ± 0.21 | viable M. tuberculosis, Lungs ± SEM (M. tuberculosis; 25 mg/kg): 5.5 ± 0.21

Cc1ncc([N+](=O)[O-])n1CCO [Metronidazole, reference compound]
viable M. tuberculosis, Spleen ± SEM (M. tuberculosis; 150 mg/kg): 6.9 ± 0.04 | viable M. tuberculosis, Lungs ± SEM (M. tuberculosis; 150 mg/kg): 8.5 ± 0.18
